This passage reports Activity and IC50 results from ChEMBL document CHEMBL6177984, “Pyrazolo[1,5-a]pyrimidine-Based Type-I Photosensitizer as an Efficient Pyroptosis Inducer for Tumor Ablation” (J Med Chem, 2025).

Active and inactive are the calls of the source. The calls are words filed in the database; no cut-off is given here.

The test system of data set [1] is MDA-MB-231. The data set can be described thus: Photocytotoxicity in human MDA-MB-231 cells assessed as cell viability at 1 uM preincubated with compound for 1 hr followed by light irradiated with 400 to 700 nm 100 mW/cm^2 for 10 mins and measured after 24 hrs by CCK-8 assay. The class given is functional, cell-based. The conditions noted are these: time 1510.0 min. (In general: Formazan colour is commonly taken as a measure of viable cells.)

Data set [2] relates to MDA-MB-231. The data set is described as follows: Photocytotoxicity in human MDA-MB-231 cells assessed as cell viability preincubated with compound for 1 hr followed by light irradiated with 400 to 700 nm 100 mW/cm^2 for 10 mins and measured after 24 hrs by CCK-8 assay. The conditions noted are these: MDA-MB-231, light or radiation study. The class given is functional, cell-based.

Data set [3] in a line: Dark cytotoxicity against human MDA-MB-231 cells assessed as cell viability incubated for 24 hrs by CCK8 assay. The class given is toxicity, cell-based.
Data set [4] deals with MDA-MB-231. The data set is described as follows: Induction of ROS production in human MDA-MB-231 cells assessed as increase in intracellular OH level at 0.3 uM preincubated with compound for 1 hr followed by light irradiation with 400 to 700 nm 100 mW/cm2 for 10 mins by HPF fluorescent probe based flow cytometry. The conditions noted are these: time 70.0 min. The class given is functional, cell-based. (A flow cytometer gives signals particle by particle.)

Take `CC[N+]1=C(/C=C/c2ccc(-c3cnn4ccc(N5CCOCC5)nc34)s2)C(C)(C)c2cc(I)ccc21`: the result in the data set on MDA-MB-231 [1] was Active. The IC50 in the data set on MDA-MB-231 [2] is 280 nM. Besides, the IC50 at 24 h in data set [3] is more than 10000 nM.
Take `O=S(=O)(O)c1cc(O)c(O)c(S(=O)(=O)O)c1`: the result in the data set on MDA-MB-231 [4] was Active.

As usually defined, the IC50 is the concentration that gives 50% inhibition.
